Key:
[1] = system: HEK293 cells; experiment: Fluorescence imaging of self-assemblies in living cells (DCVJ); type: cell-based; settings: DCVJ 1.0 μM
Experimental: HEK293 cells were incubated with compound 1, 4, 5, or 6 (25 or 100 μM) in the presence of 1.0 μM DCVJ in DMEM (10% FBS). Fluorescence and bright-field images were taken with a CV1000 confocal microscope equipped with a 40× objective lens (Yokogawa Electric Corporation).
The ability of compound 1 and its derivatives, compounds 4 to 6, to form assemblies was also monitored in living cells. […] HEK293 cells were treated with compound 1, 4, 5, or 6 (25 μM or 100 μM) and 1.0 μM of DCVJ for 8 hours. Fluorescence and bright-field images were taken with a CV1000 confocal microscope. HEK293 cells were treated with compound 1, 4, 5, or 6 (25 or 100 μM) and DCVJ (1.0 μM) for 8 hours and observed with a confocal microscope. […] The self-assembling ability of the molecules of compound 6 may be due to its cellular activity at that concentration, even at 25 μM. […] To further support the importance of self-organization formation in cellular activity, dose-response curves for compounds 1 and 6 were determined. The biological activity of the compounds' molecular assembly is expected to be more cooperative than that of the monomer and to show a steeper dose-response curve (Reference Material 18 below). […] Compound 6 is referred to as “selfonamide” below. […] P. A High-Throughput Screen for Aggregation-Based Inhibition in a Large Compound Library. J Med Chem 2007, 50 (10), 2385-2390. https://doi.org/10.1021/jm061317y.

[2] = target: denatured BSA-flu (Bos taurus, UniProt P02769); experiment: Co-assembly with fluorescently labeled BSA (BSA-flu), confocal imaging; type: binding; settings: 25° C. 19 h, excess unlabeled BSA 2.0 mg/mL
Experimental: To prepare denatured BSA-flu, a solution of BSA-flu (1.1 mg/mL) in PBS (pH of 7.4) was incubated at 80° C. for 1 hour. Native or denatured BSA-fluorescein (final concentration: 0.1 mg/mL) was added to a solution of compound 1 (100 μM) or compound 6 (25 μM) in PBS (pH of 7.4) containing 2.0 mg/mL BSA. The mixture was incubated at 25° C. for 19 hours and then images were taken with a CV1000 confocal microscope. The fluorescence intensity of the co-assemblies was quantified from the images obtained using ImageJ software.

[3] = system: HEK293 cells; experiment: Tunicamycin assay using an autophagy or proteasome inhibitor; type: cell-based; settings: pre-incubation 16 h, tunicamycin 5.0 μg/mL 48 h
Experimental: (§1) Cellular protein aggregates are often cleared by cellular mechanisms, such as autophagy and ubiquitin-proteasome system. To examine the importance of these proteolytic pathways in the activity of compounds 1 and 6, their ability to inhibit tunicamycin-induced cytotoxicity in the presence of an autophagy or proteasome inhibitor (bafilomycin A1 or MG132, respectively) was measured. FIG. 9 is a graph showing the results of a tunicamycin assay using an autophagy or proteasome inhibitor. Cells were pre-incubated with compound 1 or compound 6 for 16 hours and then treated with tunicamycin (5.0 μg/mL) in the presence or absence of a specified substance for 48 hours. FIG. 9(A) is a graph showing measurements in the presence or absence of bafilomycin A1 (Baf A1, autophagy inhibitor). FIG. 9(B) is a graph showing measurements in the presence or absence of MG132 (proteasome inhibitor). Error bars represent s.d. (n=3). Statistical analysis was performed according to the one-way ANOVA and Dunnett's test. *P<0.05; n.s.: not significant. […] The concentrations used of the inhibitors were confirmed to be non-toxic to cells (FIGS. 31 and 32). To further study the role of autophagy, autophagy-deficient atg7^−/− and p62^−/− mouse embryonic fibroblasts (MEFs) were subjected to a tunicamycin assay. FIG. 10 is a graph showing the results of the tunicamycin assay using the autophagy-deficient cells. Wild-type (wt), atg7^−/−, or p62^−/− mouse embryonic fibroblasts (MEFs) were treated with molecule 1 (100 μM) or molecule 6 (25 μM) for 18 hours and then incubated with tunicamycin (5.0 μg/mL) for 48 hours. Error bars represent s.d. (n=3). Statistical analysis was performed according to the one-way ANOVA and Dunnett's test. *P<0.05, **P<0.01. ATG7 is an E1-like enzyme important for phagophore expansion, and p62 is an autophagy receptor for ubiquitinated substrates (Reference Material 20 below). Wild-type (wt), atg7^−/−, or p62^−/− MEF cells were treated with compound 1 or compound 6 for 18 hours, followed by treatment with tunicamycin (5.0 μg/mL) for 48 hours. […] Nat Rev Mol Cell Bio 2018, 19 (6), 349-364. https://doi.org/10.1038/s41580-018-0003-4.

[4] = system: mouse embryonic fibroblasts (MEFs); experiment: Tunicamycin assay using autophagy-deficient cells; type: cell-based; settings: for Rescue from ER stress-induced cell death: wild-type MEFs, compound 1 100 μM, compound 6 25 μM, 18 h, tunicamycin 5.0 μg/mL 48 h
Experimental: as §1

[5] = system: iFECD; experiment: TGF-β2-induced cell damage in iFECD (phase-contrast microscopy); type: cell-based, human; settings: pretreatment 24 h, TGF-β2 10 ng/ml; compound 1 1-100 μM, compound 6 10 nM-1 μM
Experimental: The medium was removed from the culture dish, in which iFECD was being cultured, and 1×PBS(−) that had been pre-warmed to 37° C. was added to wash the cells. This procedure was performed twice. Again, 1×PBS(−) was added, and the cells were incubated at 37° C. (5% CO2) for 3 minutes. After the PBS(−) was removed, 0.05% Trypsin-EDTA (Nacalai Tesque, 32778-34) was added, and the cells were incubated at 37° C. ([…]) for 5 minutes. Thereafter, the cells were suspended in a medium and centrifuged at 1500 rpm for 3 minutes to recover the cells. The medium used was DMEM (Nacalai Tesque, 08456-36)+10% FBS (Biowest, S1820-500)+1% P/S (Nacalai Tesque, 26252-94).
iFECD cells were seeded in a 12-well plate at a density of 0.5×10^5 cells per well and cultured at 37° C.
The same method as described in the Materials and Methods section in Example 11-1 was used, except that compound 6 was used instead of compound 1, and the amount of iFECD seeded in a 12-well plate was changed from 0.5×10^5 cells per well to 0.9×10^5 cells per well.

denatured BSA-flu, sequence (P02769 25-607): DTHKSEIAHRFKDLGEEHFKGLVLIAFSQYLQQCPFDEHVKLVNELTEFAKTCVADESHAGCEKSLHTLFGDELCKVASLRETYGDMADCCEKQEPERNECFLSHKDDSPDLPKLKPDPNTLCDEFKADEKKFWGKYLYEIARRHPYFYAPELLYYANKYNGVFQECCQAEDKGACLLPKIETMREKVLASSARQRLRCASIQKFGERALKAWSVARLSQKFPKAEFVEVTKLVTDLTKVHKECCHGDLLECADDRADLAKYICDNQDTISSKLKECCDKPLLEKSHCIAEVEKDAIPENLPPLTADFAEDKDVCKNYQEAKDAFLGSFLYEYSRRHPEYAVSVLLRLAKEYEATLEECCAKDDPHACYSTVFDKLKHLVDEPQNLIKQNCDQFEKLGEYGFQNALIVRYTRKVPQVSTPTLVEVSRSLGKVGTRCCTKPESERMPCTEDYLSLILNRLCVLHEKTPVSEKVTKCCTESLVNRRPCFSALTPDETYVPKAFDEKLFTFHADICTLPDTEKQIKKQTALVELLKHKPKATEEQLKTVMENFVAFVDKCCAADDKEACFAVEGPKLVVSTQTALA

NS(=O)(=O)c1ccc(Nc2ccn3c(n2)nc(=O)c2sc4cc(F)ccc4c23)cc1 [compound 1]
Fluorescent particles within cells ([1]; 100 μM, after 8 hours): fluorescent particles were observed within the cells | Co-assembly with native or denatured BSA-flu [2]: selectively formed co-assemblies with heat-denatured BSA | Activity in the presence of MG132 [3]: no significant effect | Activity in the presence of bafilomycin A1 [3]: partially canceled | Ability to rescue from ER stress-induced cell death ([4]; atg7−/− MEFs): severely impaired | Ability to rescue from ER stress-induced cell death ([4]; p62−/− MEFs): severely impaired | Rescue from ER stress-induced cell death [4]: rescued | Cell damage induced by recombinant human TGF-β2 [5]: limited damage to corneal endothelial cells

COc1ccc2c(c1)sc1c(=O)nc3nc(Nc4ccc(S(N)(=O)=O)cc4)ccn3c12 [compound 6]
Assemblies within cells ([1]; 25 μM, 8 h): showed detectable assemblies within cells | Co-assembly with native or denatured BSA-flu [2]: selectively formed co-assemblies with heat-denatured BSA | Activity in the presence of MG132 [3]: no significant effect | Activity in the presence of bafilomycin A1 [3]: partially canceled | Ability to rescue from ER stress-induced cell death ([4]; atg7−/− MEFs): severely impaired | Ability to rescue from ER stress-induced cell death ([4]; p62−/− MEFs): severely impaired | Rescue from ER stress-induced cell death [4]: rescued | Cell damage induced by recombinant human TGF-β2 [5]: limited damage to corneal endothelial cells
